Laboratory results reported in US8889881B2, “Compound having skin-whitening, anti-oxidizing and PPAR activities and medical use therefor” (Pusan National University Industry —University Cooperation …, priority 2011, dated 2014).

Legend:
[1] = target: T1, PPAR alpha-LBD (Homo sapiens, UniProt Q07869); experiment: PPAR assay, PPARα; details: for PPARα activation (competitive activation rate), compared with fenofibrate: sample final concentration 100 μM, positive control fenofibrate, FIGS. 5 and 6; for simultaneous activation of PPARα and PPARγ: summary of the PPARα and PPARγ assays, sample 100 μM
T1 sequence (Q07869 239-466 limits assumed): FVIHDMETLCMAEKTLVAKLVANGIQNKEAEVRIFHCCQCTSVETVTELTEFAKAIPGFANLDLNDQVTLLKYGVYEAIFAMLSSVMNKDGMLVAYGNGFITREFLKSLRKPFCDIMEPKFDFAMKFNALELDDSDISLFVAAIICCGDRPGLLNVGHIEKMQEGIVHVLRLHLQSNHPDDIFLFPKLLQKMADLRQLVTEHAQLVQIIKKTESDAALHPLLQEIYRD

[2] = system: Mushroom-derived tyrosinase; experiment: Tyrosinase inhibitory effect; format: biochemical; details: 1 mM L-tyrosin, pH 6.5, 25° C., 30 minutes, OD492; positive control kojic acid; FIGS. 3 and 4
Procedure: Mushroom-derived tyrosinase was sued as an enzyme source in the present experiment. Tyrosinase activities were assayed according to a slightly-modified conventionally known method (Life Sci., 1999, 65, 241-246). In detail, 20 μl of a mushroom-derived tyrosinase (1000 units) aqueous solution was added to 96-well microplate (Nunc, Denmark) to prepare 200 μl of the total volume of assay mixture containing 1 mM L-tyrosin solution and 50 mM phosphate buffer solution (pH 6.5). The assay mixture was cultured at a temperature of 25° C. for 30 minutes.

[3] = target: T2, PPAR gamma-LBD (Homo sapiens, UniProt P37231); experiment: PPAR assay, PPARγ; format: binding; details: sample final concentration 100 μM; positive control rosiglitazone; FIGS. 7 and 8
T2 sequence (P37231 238-503 limits assumed): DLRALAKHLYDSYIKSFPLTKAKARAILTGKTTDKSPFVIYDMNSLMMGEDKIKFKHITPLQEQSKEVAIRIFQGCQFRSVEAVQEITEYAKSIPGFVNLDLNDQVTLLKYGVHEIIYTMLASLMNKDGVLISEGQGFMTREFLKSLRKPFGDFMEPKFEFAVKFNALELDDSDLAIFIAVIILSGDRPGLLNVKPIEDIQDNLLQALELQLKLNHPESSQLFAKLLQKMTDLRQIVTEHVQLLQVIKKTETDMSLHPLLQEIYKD

[4] = system: YPEN-1 cells (rat prostatic endothelial cell line); experiment: In vitro ROS scavenging activity assay (DCFDA); format: cell-based; details: cells pre-treated with 50 μM SIN-1 for 1 hour; DCFDA fluorescence; positive control trolox; FIGS. 1 and 2
Procedure: YPEN-1 cells (rat prostatic endothelial cell line) was obtained from American type culture collection (ATCC, Manassas, Va., USA), and the cells were cultured by using a dulbecco's modified eagle medium (DMEM, Nissui, Tokyo, Japan) containing 2 mM L-glutamine, […], 2.5 mg/L amphotericin B, and 5% inactivated fetal bovine serum (FBS). Also, the cells were maintained at a temperature of 37° C. in a humid atmosphere-like condition containing 5% CO2 and 95% air. […] The cells were sub-cultured in 100 mm plastic flask (Corning Co., New York, USA) every two days to maintain the cell line.
2′,7′-dichlorodihydrofluorescein diacetate (DCFDA) assay method according to a conventionally known method (Chem Res Toxicol. 5: 227-231, 1992) was used. In detail, 12.5 mM DCFDA dissolved in 99.9% ethanol and 600 U/ml esterase dissolved in tertiary distilled water were stored as a stock solution at a temperature of −20° C., and a 2′,7′-dichlorodihydrofluorescein (DCFH) solution prepared by mixing 10 mM DCFDA and 6 U/ml esterase was cultured at a temperature of 22° C. for 20 minutes, and then, refrigerated in a dark place before use. […] Vascular endothelial cells that were pre-treated with 50 μM 3-morpholinosydnonimine hydrochloride (SIN-1) for 1 hour were used as a reactive oxygen generation source.

Compound	PPARα activation (competitive activation rate), compared with fenofibrate [1]	simultaneous activation of PPARα and PPARγ [1]	tyrosinase inhibitory activities, compared with kojic acid [2]	PPARγ activation (competitive activation rate), compared with rosiglitazone [3]	melting point [°C]	scavenging effects on ROS generated by vascular endothelial cells, compared with trolox [4]
Oc1ccc(-c2nc3ccccc3[nH]2)c(O)c1 [Compound 45, 4-(1H-benzo[d]imidazol-2-yl)benzene-1,3-diol]	very excellent PPARα activation agent compared to fenofibrate	simultaneously activates PPARα and PPARγ	better tyrosinase inhibitory activities than a kojic acid	very excellent PPARγ activation agent compared to rosiglitazone	–	–
COc1cc(-c2nc3ccccc3[nH]2)cc(OC)c1O [Compound 55, 4-(1H-benzo[d]imidazol-2-yl)-2,6-dimethoxyphenol]	very excellent PPARα activation agent compared to fenofibrate	simultaneously activates PPARα and PPARγ	better tyrosinase inhibitory activities than a kojic acid	very excellent PPARγ activation agent compared to rosiglitazone	–	–
Oc1ccc(-c2nc3cc(Cl)ccc3s2)cc1O [Compound 83, 4-(5-chlorobenzo[d]thiazol-2-yl)benzene-1,2-diol]	–	–	better tyrosinase inhibitory activities than a kojic acid	–	127.4 to 129.1	as high scavenging effects on ROS generated by vascular endothelial cells as trolox
COc1cc(C2Nc3cc(Cl)ccc3S2)cc(OC)c1O (stereo not drawn) [Compound 94, 4-(5-chloro-2,3-dihydrobenzo[d]thiazol-2-yl)-2,6-dimethoxyphenol]	very excellent PPARα activation agent compared to fenofibrate	simultaneously activates PPARα and PPARγ	better tyrosinase inhibitory activities than a kojic acid	very excellent PPARγ activation agent compared to rosiglitazone	155.8 to 158.6	as high scavenging effects on ROS generated by vascular endothelial cells as trolox
CC(C)(Oc1ccc(-c2nc3cc(Cl)ccc3s2)cc1)C(=O)O [Compound 99, 2-(4-(5-chlorobenzo[d]thiazol-2-yl)phenoxy)-2-methylpropanoic acid]	very excellent PPARα activation agent compared to fenofibrate	simultaneously activates PPARα and PPARγ	better tyrosinase inhibitory activities than a kojic acid	very excellent PPARγ activation agent compared to rosiglitazone	–	–
